Structures can show the parent of a compound that is named as a salt.
How the values were obtained:
[1] = Determination of the microsomal half-life, rat liver microsomes; conditions: rat, liver microsomes, pH 7.4
PDE10A (human) = biological target: T1, PDE10A (human) (Homo sapiens, UniProt Q9Y233); experiment: Measurement of PDE activity (HTRF cAMP kit), human PDE10A; type: biochemical; conditions: PDE enzymatic reaction, substrate 20 nM for PDE10, 60 minutes at 29 C
T1 construct: purchased BPS Bioscience
T1 sequence (Q9Y233 whole entry): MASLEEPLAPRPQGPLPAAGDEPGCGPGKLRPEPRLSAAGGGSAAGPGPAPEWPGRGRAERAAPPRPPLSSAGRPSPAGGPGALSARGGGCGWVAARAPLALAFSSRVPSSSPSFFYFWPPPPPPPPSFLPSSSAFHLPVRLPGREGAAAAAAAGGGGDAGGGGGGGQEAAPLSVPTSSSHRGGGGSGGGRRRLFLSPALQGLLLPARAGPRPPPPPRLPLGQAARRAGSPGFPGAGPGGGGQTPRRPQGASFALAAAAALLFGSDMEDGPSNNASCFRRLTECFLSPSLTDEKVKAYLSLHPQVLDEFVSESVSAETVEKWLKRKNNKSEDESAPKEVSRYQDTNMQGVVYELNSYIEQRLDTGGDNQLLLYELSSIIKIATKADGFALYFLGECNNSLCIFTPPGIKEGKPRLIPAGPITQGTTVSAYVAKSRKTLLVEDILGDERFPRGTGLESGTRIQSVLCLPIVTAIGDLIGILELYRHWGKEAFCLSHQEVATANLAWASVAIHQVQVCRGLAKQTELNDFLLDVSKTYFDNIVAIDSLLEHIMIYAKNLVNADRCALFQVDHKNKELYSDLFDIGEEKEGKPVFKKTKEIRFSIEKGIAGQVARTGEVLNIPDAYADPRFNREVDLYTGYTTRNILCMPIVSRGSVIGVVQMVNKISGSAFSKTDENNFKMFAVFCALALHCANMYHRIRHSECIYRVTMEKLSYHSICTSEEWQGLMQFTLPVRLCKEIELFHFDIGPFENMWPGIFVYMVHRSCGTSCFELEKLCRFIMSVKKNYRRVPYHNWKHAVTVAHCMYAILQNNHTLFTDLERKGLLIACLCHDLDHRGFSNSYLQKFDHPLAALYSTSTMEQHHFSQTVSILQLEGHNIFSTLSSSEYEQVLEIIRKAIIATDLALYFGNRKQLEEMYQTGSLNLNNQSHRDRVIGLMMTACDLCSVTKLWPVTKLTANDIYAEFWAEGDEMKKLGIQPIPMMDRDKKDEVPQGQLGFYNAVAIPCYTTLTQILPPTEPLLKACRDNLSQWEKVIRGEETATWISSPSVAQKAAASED
Procedure, shortened: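 Recombinant human PDE10A (10–250 pM range across PDEs) with 20 nM cAMP substrate in 20 mM Tris-HCl pH 7.5, 10 mM MgCl2, 0.1% BSA, compound pre-mixed with enzyme. Ran 60 min at 29 °C. Remaining cAMP read by HTRF, converted to % of uninhibited activity, and IC50 fitted.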

[2] = Determination of the microsomal half-life, human liver microsomes; conditions: human, liver microsomes, pH 7.4

microsomal CLint at 0.5 μM [1] [µL/min/mg]	IC50 (PDE10A (human)) [nM]	microsomal CLint at 0.5 μM [2] [µL/min/mg]	Compound
< 100	< 100	< 100	Cn1c(CCN2Cc3nccc(-c4cccnc4)c3C2=O)nc2ccccc21 [Example 368, 6-[2-(1-Methyl-1H-benzoimidazol-2-yl)-ethyl]-4-pyridin-3-yl-6,7-dihydro-pyrrolo[3,4-b]pyridin-5-one]
< 100	< 100	< 100	COc1ccc(-c2cn[nH]c2)c2c1CN(CCc1cn3ccccc3n1)C2=O [Example 372, 2-(2-Imidazo[1,2-a]pyridin-2-yl-ethyl)-4-methoxy-7-(1H-pyrazol-4-yl)-2,3-dihydro-isoindol-1-one]
< 100	< 100	< 100	Cc1ccc2c(c1)nc(CCN1Cc3nccc(N4CCOCC4)c3C1=O)n2C [compound 415, 6-[2-(1,5-Dimethyl-1H-benzoimidazol-2-yl)-ethyl]-4-morpholin-4-yl-6,7-dihydro-pyrrolo[3,4-b]pyridin-5-one]
100 to 220	200 to 500	100 to 220	O=C1c2c(cccc2N2CCOCC2)CN1CCc1cccc(-c2ncccn2)c1 [Example 120, 7-Morpholino-2-(3-(pyrimidin-2-yl)phenethyl)isoindolin-1-one]
< 100	< 100	100 to 220	Cc1ccc(-c2cccc3c2C(=O)N(CCc2ccc4ccccc4n2)C3)cn1 [Example 91, 7-(6-Methyl-pyridin-3-yl)-2-(2-quinolin-2-yl-ethyl)-2,3-dihydro-isoindol-1-one]
< 100	< 100	> 220	Cn1c(CCN2Cc3cccc(-c4cccnc4)c3C2=O)nc2ccccc21 [Example 196, 2-[2-(1-Methyl-1H-benzoimidazol-2-yl)-ethyl]-7-pyridin-3-yl-2,3-dihydro-isoindol-1-one]
< 100	< 100	< 100	O=C1c2c(-c3ccncc3)ccnc2CN1CCc1cn2cc(F)ccc2n1 [compound 494, 6-[2-(6-Fluoroimidazo[1,2-a]pyridin-2-yl)ethyl]-4-(4-pyridyl)-7H-pyrrolo[3,4-b]pyridin-5-one trifluoroacetate]
> 220	200 to 500	100 to 220	O=C1c2c(-c3ccncc3)ccnc2CN1CCc1ccc(-c2ccccc2)cn1 [compound 488, 6-[2-(5-Phenyl-2-pyridyl)ethyl]-4-(4-pyridyl)-7H-pyrrolo[3,4-b]pyridin-5-one trifluoroacetate]
< 100	200 to 500	< 100	O=C1c2cccc(N3CCS(=O)(=O)CC3)c2CN1CCc1ccc2ccccc2n1 [Example 131, 4-(1,1-Dioxo-1-thiomorpholin-4-yl)-2-(2-quinolin-2-yl-ethyl)-2,3-dihydro-isoindol-1-one]
< 100	< 100	< 100	O=C1c2c(-c3ccncc3F)ccnc2CN1CCc1cn2ccccc2n1 [compound 534, 4-(3-Fluoro-pyridin-4-yl)-6-(2-imidazo[1,2-a]pyridin-2-yl-ethyl)-6,7-dihydro-pyrrolo[3,4-b]pyridin-5-one]
100 to 220	< 100	< 100	O=C1c2c(N3CCC(C(F)F)C3)ccnc2CN1CCc1cn2ccccc2n1 (stereo not drawn) [compound 386, 4-[3-(Difluoromethyl)pyrrolidin-1-yl]-6-(2-imidazo[1,2-a]pyridin-2-ylethyl)-7H-pyrrolo[3,4-b]pyridin-5-one]
100 to 220	100 to 200	< 100	COc1ccc(-c2ccnc3c2C(=O)N(CCc2nc4ccccc4s2)C3)cc1 [compound 541, 6-[2-(1,3-Benzothiazol-2-yl)ethyl]-4-(4-methoxyphenyl)-7H-pyrrolo[3,4-b]pyridin-5-one trifluoroacetate]
< 100	< 100	100 to 220	O=C1c2c(cccc2-c2cccnc2)CN1CCc1cn2ccccc2n1 [Example 235, 2-(2-Imidazo[1,2-a]pyridin-2-yl-ethyl)-7-pyridin-3-yl-2,3-dihydro-isoindol-1-one]
100 to 220	100 to 200	< 100	Cc1cnc(CCN2Cc3nccc(N4CCOCC4)c3C2=O)cc1C [compound 520, 6-[2-(4,5-Dimethyl-2-pyridyl)ethyl]-4-morpholino-7H-pyrrolo[3,4-b]pyridin-5-one]
< 100	< 100	< 100	O=C1c2c(N3CCNCC3)ccnc2CN1CCc1ccc2ccccc2n1 [Example 163, 4-piperazin-1-yl-6-(2-quinolin-2-yl-ethyl)-6,7-dihydro-pyrrolo[3,4-b]pyridin-5-one]
> 220	< 100	100 to 220	O=C1c2c(N3CCOCC3)ccnc2CN1CCc1ccc(-c2ccccc2)cn1 [compound 486, 4-Morpholino-6-[2-(5-phenyl-2-pyridyl)ethyl]-7H-pyrrolo[3,4-b]pyridin-5-one]
> 220	< 100	100 to 220	CC(C)c1ccc(CCN2Cc3nccc(-c4ccncc4)c3C2=O)nc1 [compound 398, 6-[2-(5-Isopropyl-2-pyridyl)ethyl]-4-(4-pyridyl)-7H-pyrrolo[3,4-b]pyridin-5-one]
100 to 220	200 to 500	100 to 220	CN(C)Cc1ccc(-c2cccc3c2C(=O)N(CCc2ccc4ccccc4n2)C3)cc1 [Example 188, 7-(4-Dimethylaminomethyl-phenyl)-2-(2-quinolin-2-yl-ethyl)-2,3-dihydro-isoindol-1-one (dihydrochloride)]
< 100	100 to 200	< 100	Cn1nccc1-c1cccc2c1C(=O)N(CCc1cn3ccccc3n1)C2 [Example 239, 2-(2-Imidazo[1,2-a]pyridin-2-yl-ethyl)-7-(2-methyl-2H-pyrazol-3-yl)-2,3-dihydro-isoindol-1-one]
> 220	< 100	100 to 220	[2H]c1nc2c(c(N3C([2H])([2H])C([2H])([2H])OC([2H])([2H])C3([2H])[2H])c1[2H])C(=O)N(C([2H])([2H])Cc1nc3c([2H])c([2H])c([2H])c([2H])c3c([2H])c1[2H])C2([2H])[2H] [compound 510, 2,3,7,7-Tetradeuterio-6-[1,1-dideuterio-2-(3,4,5,6,7,8-hexadeuterio-2-quinolyl)ethyl]-4-(2,2,3,3,5,5,6,6-octadeuteriomorpholin-4-yl)pyrrolo[3,4-b]pyridin-5-one]
100 to 220	< 100	< 100	O=C1c2c(-c3cn[nH]c3)ccnc2CN1CCc1ccc2ccccc2n1 [Example 156, 4-(1H-Pyrazol-4-yl)-6-(2-quinolin-2-yl-ethyl)-6,7-dihydro-pyrrolo[3,4-b]pyridin-5-one]
> 220	< 100	< 100	COc1ccc(-c2cc[nH]n2)c2c1C(=O)N(CCc1nc3ccccc3s1)C2 [compound 400, 2-[2-(1,3-Benzothiazol-2-yl)ethyl]-7-methoxy-4-(1H-pyrazol-3-yl)isoindolin-1-one]
< 100	200 to 500	< 100	CN(C)C1CCN(c2ccnc3c2C(=O)N(CCc2ccc4ccccc4n2)C3)CC1 [Example 363, 4-(4-Dimethylamino-piperidin-1-yl)-6-(2-quinolin-2-yl-ethyl)-6,7-dihydro-pyrrolo[3,4-b]pyridin-5-one hydrochloride]
100 to 220	100 to 200	< 100	O=C1c2c(cccc2-c2cn[nH]c2)CN1CCc1cn2ccccc2n1 [Example 242, 2-(2-Imidazo[1,2-a]pyridin-2-yl-ethyl)-7-(1H-pyrazol-4-yl)-2,3-dihydro-isoindol-1-one]
< 100	< 100	< 100	Cc1ccc2c(c1)nc(CCN1Cc3nccc(-c4cccnc4)c3C1=O)n2C [compound 539, 6-[2-(1,5-Dimethylbenzimidazol-2-yl)ethyl]-4-(3-pyridyl)-7H-pyrrolo[3,4-b]pyridin-5-one]
< 100	< 100	< 100	O=C1c2c(-c3ccncc3)ccnc2CN1CCc1cn2ccccc2n1 [Example 369, 6-(2-Imidazo[1,2-a]pyridin-2-yl-ethyl)-4-pyridin-4-yl-6,7-dihydro-pyrrolo[3,4-b]pyridin-5-one]
< 100	< 100	< 100	COc1ccc(-c2ccnn2C)c2c1CN(CCc1cn3ccccc3n1)C2=O [Example 373, 2-(2-Imidazo[1,2-a]pyridin-2-yl-ethyl)-4-methoxy-7-(2-methyl-2H-pyrazol-3-yl)-2,3-dihydro-isoindol-1-one]
< 100	< 100	< 100	Cc1ccc(CCN2Cc3nccc(N4CCOCC4)c3C2=O)nc1 [compound 551, 6-[2-(5-Methyl-2-pyridyl)ethyl]-4-morpholino-7H-pyrrolo[3,4-b]pyridin-5-one]
< 100	200 to 500	< 100	CN1CCN(c2cccc3c2C(=O)N(CCc2ccc4ccccc4n2)C3)CC1 [Example 107, 7-(4-Methyl-piperazin-1-yl)-2-(2-quinolin-2-yl-ethyl)-2,3-dihydro-isoindol-1-one]
